Data on four molecules can be found in PMC12023841, “Unlocking the Gates: A Novel Diagnostic Molecule for Quantifying Efflux Levels in Gram‐Positive Bacteria” (Advanced Healthcare Materials, 2025).

For one series, the target named is NorA efflux pump (Staphylococcus aureus, UniProt P0A0J7). The series is classed as cell-based, S. aureus. Particulars: 5a4 1 µg mL^−1.
Series [1] is described as follows: Precipitation of reserpine in the presence of 5a4. The series is classed as physicochemical. To be noted: text printed in Figure 7C.
In series [2] the test system is S. aureus strains. Particulars: cited from earlier work.
Series [3] relates to S. epidermidis strains. The arrangement: method as in earlier work. To be noted: cited from earlier work.
Series [4] relates to S. aureus strains. It counts as cell-based.
Series [5] relates to S. epidermidis strains. The series is classed as cell-based.
The test system of series [6] is Staphylococcus aureus ATCC 25923 (Reference, basal). Nature of the series: MIC, broth microdilution (CLSI). Particulars: ATCC25923. The series is classed as cell-based.
In series [7] the test system is SA 1199 (Wild‐type, basal). Nature of the series: MIC, broth microdilution (CLSI). The series is classed as cell-based. Particulars: Staphylococcus aureus.
Series [8] has as its system SA 1199‐B (norA overexpressing). The series is described as follows: microbe, parasite or virus in culture. It counts as cell-based, Staphylococcus aureus. Particulars: Staphylococcus aureus.
The test system of the next series is SA‐K1758 (∆norA). The series is described as follows: microbe, parasite or virus in culture. It counts as cell-based. To be noted: Staphylococcus aureus.
Series [9] in a line: Solution‐state stability test in MH‐II broth. To be noted: 512–1 µg mL^−1, 37 °C for a day, centrifuged. It counts as physicochemical. The protocol: Before accessing the minimal inhibitory concentration (MIC), each phenazinium derivative was subjected to a solution‐state stability test. For this experiment, each derivative was solubilized in DMSO to achieve a primary stock solution (20 mg mL^−1). This stock was further diluted in MilliQ to achieve a working stock solution (10 mg mL^−1). […] The tubes were placed in an incubator at 37 °C for a day and later centrifuged at 25 000 rpm for 25 min.

Where two headings read alike, the source gives them in different places.

Sequence of NorA efflux pump (P0A0J7 whole entry): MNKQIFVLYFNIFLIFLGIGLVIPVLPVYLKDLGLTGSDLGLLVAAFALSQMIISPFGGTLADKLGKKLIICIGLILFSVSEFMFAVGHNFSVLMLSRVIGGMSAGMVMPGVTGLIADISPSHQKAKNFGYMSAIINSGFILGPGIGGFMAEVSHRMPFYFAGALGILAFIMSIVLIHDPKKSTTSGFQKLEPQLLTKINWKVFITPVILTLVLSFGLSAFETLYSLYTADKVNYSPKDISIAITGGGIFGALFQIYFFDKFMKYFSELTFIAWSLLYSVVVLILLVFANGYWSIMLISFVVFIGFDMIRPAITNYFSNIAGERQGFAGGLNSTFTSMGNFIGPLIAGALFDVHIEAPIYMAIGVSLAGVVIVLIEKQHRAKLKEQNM

Regarding `COC(=O)[C@H]1[C@H]2C[C@@H]3c4[nH]c5cc(OC)ccc5c4CCN3C[C@H]2C[C@@H](OC(=O)c2cc(OC)c(OC)c(OC)c2)[C@@H]1OC` [reserpine], the entries for the “change of 5a4 fluorescent intensity with reserpine” value on NorA efflux pump (SA‐1199B) and at NorA efflux pump (SA‐K1758 (norA‐deficient)) were “drastic increase” and “no discernible change”, respectively. On NorA efflux pump (SA‐1199 and SA‐1199B), the “reserpine concentration giving significant increase (p < 0.01) in 5a4 fluorescence intensity versus untreated cells” value is no less than 10 µg/mL. For the same molecule, the “Precipitation of reserpine (concentration)” value in [1] was in the range of 20 to 30 µg/mL.
As to `O=C(O)c1cn(C2CC2)c2cc(N3CCNCC3)c(F)cc2c1=O` [CIP, Ciprofloxacin], the Susceptibility profile result in the series on S. aureus strains [2] (strain ATCC25923, ref [4]) is on record as “I”; with S. aureus strains [2] (strain ATCC25923_EtBr, ref [4]), “I”; with S. aureus strains [2] (strain SA-1199, ref [2]), “S”; in the series on S. aureus strains [2] (strain SA-1199B, ref [2]), “R”; in the series with S. aureus strains [2] (strain SA-K1712, ref [3]), “S”; in the series with S. aureus strains [2] (strain SA-K1748, ref [3]), “R”. In addition, the Susceptibility profile result in the series with S. aureus strains [2] (strain SA-K1758, ref [2]) is “S”; in the series with S. aureus strains [2] (strain SA-K2068, ref [3]), “S”; with S. epidermidis strains [3], “I”.
As for `COc1c(N2C[C@@H]3CCCN[C@@H]3C2)c(F)cc2c(=O)c(C(=O)O)cn(C3CC3)c12` [MXF, Moxifloxacin], the Susceptibility profile entry in the series on S. aureus strains [4] was “R and S”; in the series with S. aureus strains [4] ([…]), “S”; in the series with S. aureus strains [4] (strain BIOS-H1) it was “S”; in the series on S. aureus strains [4] (strain BIOS-H2), “S”; in the series with S. aureus strains [4] (strain BIOS-H3), “S”; in the series on S. aureus strains [4] (strain BIOS-H5), “S”. For the same molecule, the Susceptibility profile result in the series with S. aureus strains [4] (strain BIOS-H6), in the series on S. aureus strains [4] (strain BIOS-H12), with S. aureus strains [4] (strain BIOS-H13), in the series with S. aureus strains [4] (strain BIOS-H17), in the series on S. aureus strains [4] (strain BIOS-H20) and in the series with S. aureus strains [4] (strain BIOS-H21) was “S” each time. Moreover, the Susceptibility profile result in the series with S. aureus strains [4] (strain BIOS-H22), in the series with S. aureus strains [4] (strain BIOS-H25), in the series on S. aureus strains [4] (strain BIOS-H28), in the series on S. aureus strains [4] (strain BIOS-H29), in the series on S. aureus strains [4] (strain BIOS-H30) and in the series on S. aureus strains [4] (strain BIOS-H32) was “S” each time. Also, the Susceptibility profile result with S. aureus strains [4] (strain BIOS-V21), in the series with S. aureus strains [4] (strain BIOS-V31), in the series on S. aureus strains [4] (strain BIOS-V60), with S. aureus strains [4] (strain BIOS-V61), in the series with S. aureus strains [4] (strain BIOS-V62) and in the series on S. aureus strains [4] (strain BIOS-V74) was “S” throughout. In addition, the Susceptibility profile entry with S. aureus strains [4] (strain BIOS-V75), in the series on S. aureus strains [4] (strain BIOS-V85), in the series on S. aureus strains [4] (strain BIOS-V118), with S. aureus strains [4] (strain BIOS-V128), with S. aureus strains [4] (strain BIOS-V147) and in the series on S. aureus strains [4] (strain BIOS-V151) was “S” each time. The Susceptibility profile result with S. aureus strains [4] (strain BIOS-V156), in the series with S. aureus strains [4] (strain BIOS-V157), in the series with S. aureus strains [4] (strain BIOS-V158), in the series on S. aureus strains [4] (strain BIOS-V168), in the series on S. aureus strains [4] (strain BIOS-V172) and in the series with S. aureus strains [4] (strain BIOS-V178) was “S” each time. For the same molecule, the Susceptibility profile entry with S. aureus strains [4] (strain BIOS-V203), with S. aureus strains [4] (strain BIOS-V245), in the series on S. aureus strains [4] (strain BIOS-V250), in the series with S. aureus strains [4] (strain BIOS-V257), in the series with S. aureus strains [4] (strain BIOS-V279) and with S. aureus strains [4] (strain BIOS-V295) was “S” in each case. Further, the Susceptibility profile result in the series with S. epidermidis strains [5] is reported as “R”; with S. epidermidis strains [5] (strain BIOS-V24) it was “S”; in the series on S. epidermidis strains [5] (strain BIOS-V282), “S”; in the series on S. aureus strains [2] (strain ATCC25923, ref [4]), “S”; in the series with S. aureus strains [2] (strain SA-1199, ref [2]) it was “S”; with S. aureus strains [2] (strain SA-1199B, ref [2]), “S”. For the same molecule, the Susceptibility profile entry is on record as “S” in the series with S. aureus strains [2] (strain SA-K1712, ref [3]); “R” in the series on S. aureus strains [2] (strain SA-K1748, ref [3]); “S” in the series on S. aureus strains [2] (strain SA-K1758, ref [2]); “R” with S. aureus strains [2] (strain SA-K2068, ref [3]); “S” with S. epidermidis strains [3] (strain ATCC12228, ref [5]); “R” in the series on S. epidermidis strains [3] (strain ATCC12228_EtBr, ref [5]).
`CCCCNc1ccc2nc3cc(NCCCC)c(N)cc3[n+](CCC)c2c1` [5a2]: the MIC in [6] worked out at 1 µg/mL; in [7] it was 1 µg/mL; in [8] it was 2 µg/mL; in the series with SA‐K1758 (∆norA) it was 0.25 µg/mL. Also, the “Solution state stability (concentration at which visible precipitation was observed)” value in series [9] was “Visible precipitation was observed at 512 µg mL^−1 and beyond”.
